In patent publication US20220370416A1, “COMPOUNDS AND METHODS FOR TARGETED DEGRADATION OF KRAS” (Arvinas Operations, Inc., priority 2020, published 2022):

Assays:
HiBit-KRAS^G12C [1] = molecular target: T1, HiBit-KRAS^G12C (Homo sapiens, UniProt P01116, G12C); assay: HiBit degradation assay in SW1573 HiBit-KRas^G12C cells; format: cell-based; design: expressed in transfected cells; host or cells: SW1573 (clone E6), modified pcDNA3.1 vector, TK promoter; conditions: 0.5% DMSO, 24 hours; for Dmax: SW1573, SW1573 HiBit-KRas^G12C, read-out: KRas^G12C-HiBiT (SW1573; 0.5% DMSO) Dmax**; for DC50: read-out: KRas^G12C-HiBiT (SW1573; 0.5% DMSO) IC50***, SW1573 HiBit-KRas^G12C
In short: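 SW1573 cells stably expressing N-terminally HiBit-tagged KRAS G12C, under the TK promoter, were treated 24 h at 37 °C with 10 μM to 20 nM compound in 0.1% or 0.5% DMSO. Residual HiBit luminescence normalised to DMSO and fitted with a 4-parameter model for DC50 and Dmax. Points with ≥50% viability loss (alamar blue) excluded.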

HiBit-KRAS^G12C [2] = molecular target: T1, HiBit-KRAS^G12C; assay: HiBit degradation assay in MiaPaCa-2 HiBit-KRas^G12C cells; format: cell-based; conditions: 0.5% DMSO, 24 hours; for DC50: read-out: KRas^G12C-HiBiT (MiaPaCa; 0.5% DMSO) IC50, MiaPaCa-2 HiBit-KRas^G12C cells; for Dmax: MIA PaCa-2, MiaPaCa-2 HiBit-KRas^G12C cells, maximum degradation, read-out: KRas^G12C-HiBiT (MiaPaCa; 0.5% DMSO) DMax
In short: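 MiaPaCa-2 cells with CRISPR N-terminal HiBit knock-in on one endogenous KRAS^G12C allele, treated 24 hours at 37° C with compound titrated 10 μM to 20 nM (0.1% or 0.5% DMSO). Lytic HiBit luminescence normalized to DMSO, 4-parameter fit giving DC50 and Dmax; points cytotoxic to […] cells by alamar blue excluded.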

T1 sequence (P01116 1-186 isoform P01116-2 G12C limits assumed): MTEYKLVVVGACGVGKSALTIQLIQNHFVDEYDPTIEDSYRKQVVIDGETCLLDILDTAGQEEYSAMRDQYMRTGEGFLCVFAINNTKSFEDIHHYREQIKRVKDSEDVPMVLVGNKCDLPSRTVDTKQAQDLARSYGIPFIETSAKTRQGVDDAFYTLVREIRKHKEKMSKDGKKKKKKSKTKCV

Compound | Dmax (HiBit-KRAS^G12C [1]) [%] | DC50 (HiBit-KRAS^G12C [1]) [µM] | DC50 (HiBit-KRAS^G12C [2]) [µM] | Dmax (HiBit-KRAS^G12C [2]) [%]
C=CC(=O)N1CCN(c2nc(OCCN3CCC(COCC(=O)N[C@H](C(=O)N4C[C@@H](O)C[C@H]4C(=O)N[C@@H](C)c4ccc(-c5scnc5C)cc4)C(C)(C)C)CC3)nc3c(F)c(-c4cccc5cccc(C)c45)c(Cl)cc23)C[C@@H]1CC#N [Compound 97] | > 70 | > 1 | > 1 | 
C=CC(=O)N1CCN(c2nc(OCCN3CCC(COCC(=O)N[C@H](C(=O)N4C[C@H](O)C[C@H]4C(=O)N[C@@H](C)c4ccc(-c5scnc5C)cc4)C(C)(C)C)CC3)nc3c(F)c(-c4nc(NC)cc5ccccc45)c(Cl)cc23)C[C@@H]1CC#N [Compound 99, (2S,4R)-1-[(2S)-2-[2-({1-[2-({6-chloro-4-[(3S)-3-(cyanomethyl)-4-(prop-2-enoyl)piperazin-1-yl]-8-fluoro-7-[3-(methylamino)isoquinolin-1-yl]quinazolin-2-yl}oxy)ethyl]piperidin-4-yl}methoxy)acetamido]-3,3-dimethylbutanoyl]-4-hydroxy-N-[(1S)-1-[4-(4-methyl-1,3-thiazol-5-yl)phenyl]ethyl]pyrrolidine-2-carboxamide] | > 70 | > 1 | > 1 | > 70
C=CC(=O)N1CCN(c2nc(OC[C@@H]3CCCN3CCCCOCC(=O)N[C@H](C(=O)N3C[C@H](O)C[C@H]3C(=O)N[C@@H](C)c3ccc(-c4scnc4C)cc3)C(C)(C)C)nc3c(F)c(-c4cc(O)cc5ccccc45)c(Cl)cc23)C[C@@H]1CC#N [Compound 100, (2S,4R)-1-[(2S)-2-(2-{4-[(2S)-2-[({6-chloro-4-[(3S)-3-(cyanomethyl)-4-(prop-2-enoyl)piperazin-1-yl]-8-fluoro-7-(3-hydroxynaphthalen-1-yl)quinazolin-2-yl}oxy)methyl]pyrrolidin-1-yl]butoxy}acetamido)-3,3-dimethylbutanoyl]-4-hydroxy-N-[(1S)-1-[4-(4-methyl-1,3-thiazol-5-yl)phenyl]ethyl]pyrrolidine-2-carboxamide] | < 35 | 0.1 to 1 | > 1 | < 35
C=CC(=O)N1CCN(c2nc(OCCN3CCC(COCC(=O)N[C@H](C(=O)N4C[C@H](O)C[C@H]4C(=O)N[C@@H](C)c4ccc(-c5scnc5C)cc4)C(C)(C)C)CC3)nc3c(F)c(-c4nc(N)cc5ccccc45)c(Cl)cc23)C[C@@H]1CC#N [Compound 111] | 35 to 70 | 0.1 to 1 | 0.1 to 1 | 35 to 70

The remaining lines, values ahead:

Dmax (HiBit-KRAS^G12C [1]) [%] | DC50 (HiBit-KRAS^G12C [1]) [µM] | DC50 (HiBit-KRAS^G12C [2]) [µM] | Dmax (HiBit-KRAS^G12C [2]) [%] | Compound
> 70 | 0.1 to 1 | 0.1 to 1 | > 70 | C=CC(=O)N1CCN(c2nc(OCCN3CCC(COCC(=O)N[C@H](C(=O)N4C[C@H](O)C[C@H]4C(=O)N[C@@H](C)c4ccc(-c5scnc5C)cc4)C(C)(C)C)CC3)nc3c(F)c(-c4nc(NC)cc(C)c4C(F)(F)F)c(Cl)cc23)C[C@@H]1CC#N [Compound 98, (2S,4R)-1-[(2S)-2-[2-({1-[2-({6-chloro-4-[(3S)-3-(cyanomethyl)-4-(prop-2-enoyl)piperazin-1-yl]-8-fluoro-7-[4-methyl-6-(methylamino)-3-(trifluoromethyl)pyridin-2-yl]quinazolin-2-yl}oxy)ethyl]piperidin-4-yl}methoxy)acetamido]-3,3-dimethylbutanoyl]-4-hydroxy-N-[(1S)-1-[4-(4-methyl-1,3-thiazol-5-yl)phenyl]ethyl]pyrrolidine-2-carboxamide]
> 70 | 0.1 to 1 | 0.1 to 1 | > 70 | C=CC(=O)N1CCN(c2nc(OCCN3CCC(COCC(=O)N[C@H](C(=O)N4C[C@H](O)C[C@H]4C(=O)N[C@@H](C)c4ccc(-c5scnc5C)cc4)C(C)(C)C)CC3)nc3c(F)c(-c4cc(O)cc(C)c4C)c(Cl)cc23)C[C@@H]1CC#N [Compound 102, (2S,4R)-1-[(2S)-2-[2-({1-[2-({6-chloro-4-[(3S)-3-(cyanomethyl)-4-(prop-2-enoyl)piperazin-1-yl]-8-fluoro-7-(5-hydroxy-2,3-dimethylphenyl)quinazolin-2-yl}oxy)ethyl]piperidin-4-yl}methoxy)acetamido]-3,3-dimethylbutanoyl]-4-hydroxy-N-[(1S)-1-[4-(4-methyl-1,3-thiazol-5-yl)phenyl]ethyl]pyrrolidine-2-carboxamide]
